# From ChEMBL document CHEMBL4616632, “Discovery of Cyclic Boronic Acid QPX7728, an Ultrabroad-Spectrum Inhibitor of Serine and Metallo-β-lactamases” (J Med Chem, 2020)
# Key:
# [1] = test system: Pseudomonas aeruginosa; experiment: Inhibition of Pseudomonas aeruginosa PAM 1032 KPC-2 assessed as minimum potentiating concentration of compound needed to reduce the MIC of biapenem by 64 fold
# [2] = Ratio of inhibition of Pseudomonas aeruginosa PAM 1032 KPC-2 assessed as minimum potentiating concentration of compound needed to reduce the MIC of biapenem by 64 fold to inhibition of Pseudomonas aeruginosa PAM 1154 KPC-2 assessed as assessed as minimum potentiating concentration of compound needed to reduce the MIC of biapenem by 64 fold
# [3] = test system: Pseudomonas aeruginosa; experiment: Inhibition of Pseudomonas aeruginosa PAM 1154 KPC-2 assessed as assessed as minimum potentiating concentration of compound needed to reduce the MIC of biapenem by 64 fold
# [4] = Oral bioavailability in rat at 50 to 75 mg/kg by HPLC/MS analysis; type: ADME, organism-based; conditions: in vivo
# [5] = test system: Klebsiella pneumoniae; experiment: Inhibition of Klebsiella pneumoniae KP1086 OXA-48 assessed as minimum concentration of compound needed to reduce the MIC of biapenem to 1 ug/ml
# [6] = test system: Klebsiella pneumoniae; experiment: Inhibition of Klebsiella pneumoniae KP1081 NDM-1 assessed as minimum concentration of compound needed to reduce the MIC of biapenem to 1 ug/ml
# [7] = Inhibition of recombinant Escherichia coli NDM-1 using imipenem as substrate preincubated for 10 mins followed by substrate addition and measured every 30 secs for 30 mins by spectrophotometric analysis
# [8] = target: Beta-lactamase (Klebsiella pneumoniae) (UniProt Q93LQ9); experiment: Inhibition of Klebsiella pneumoniae KP1004 KPC-2 assessed as minimum concentration of compound needed to reduce the MIC of biapenem to 1 ug/ml
# Beta-lactamase (Klebsiella pneumoniae), sequence (Q93LQ9 as listed by the source): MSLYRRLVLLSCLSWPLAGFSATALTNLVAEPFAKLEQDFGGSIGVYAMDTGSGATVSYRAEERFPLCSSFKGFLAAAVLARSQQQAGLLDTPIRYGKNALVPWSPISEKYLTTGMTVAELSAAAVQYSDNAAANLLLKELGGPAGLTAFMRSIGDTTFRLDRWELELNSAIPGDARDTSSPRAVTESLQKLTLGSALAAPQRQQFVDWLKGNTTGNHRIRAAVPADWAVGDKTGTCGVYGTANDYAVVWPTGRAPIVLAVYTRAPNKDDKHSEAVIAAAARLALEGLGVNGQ
# [9] = Inhibition of recombinant Escherichia coli OXA-48 using nitrocefin as substrate preincubated for 10 mins followed by substrate addition and measured every 10 secs for 10 mins by spectrophotometric analysis
# [10] = target: Class A carbapenemase KPC-2 (Escherichia coli, UniProt A8DS27); experiment: Inhibition of recombinant Escherichia coli KPC-2 using nitrocefin as substrate preincubated for 10 mins followed by substrate addition and measured every 10 secs for 10 mins by spectrophotometric analysis
# Class A carbapenemase KPC-2, sequence (A8DS27 whole entry): as the sequence (Q93LQ9 as listed by the source) above
# [11] = test system: Escherichia coli; experiment: Inhibition of Escherichia coli EC308 SHV-5 assessed as minimum concentration of compound needed to reduce the MIC of aztreonam to 4 ug/ml
# [12] = test system: Pseudomonas aeruginosa; experiment: Inhibition of Pseudomonas aeruginosa PAM 2035 AmpC assessed as minimum concentration of compound needed to reduce the MIC of aztreonam to 4 ug/ml
# [13] = test system: Klebsiella pneumoniae; experiment: Inhibition of Klebsiella pneumoniae KP1009 CTX-M-15 assessed as minimum concentration of compound required to reduce the MIC of aztreonam to 4 ug/ml
# [14] = test system: Enterobacter cloacae; experiment: Inhibition of Enterobacter cloacae ECL1002 AmpC assessed as minimum concentration of compound needed to reduce the MIC of aztreonam to 4 ug/ml
# [15] = test system: Escherichia coli; experiment: Inhibition of Escherichia coli EC302 TEM-10 assessed as minimum concentration of compound needed to reduce the MIC of aztreonam to 4 ug/ml
# [16] = target: Beta-lactamase (Klebsiella pneumoniae) (UniProt Q93LQ9); experiment: Inhibition of Klebsiella pneumoniae KP1004 KPC-2 assessed as minimum concentration of compound needed to reduce the MIC of aztreonam to 4 ug/ml
# [17] = test system: Escherichia coli; experiment: Inhibition of Escherichia coli ECM6619 TEM-10 assessed as minimum concentration of compound needed to reduce the MIC of aztreonam to 4 ug/ml
# [18] = test system: Klebsiella pneumoniae; experiment: Inhibition of Klebsiella pneumoniae KP1081 NDM-1 assessed as minimum concentration of compound required to reduce the MIC of biapenem to 1 ug/ml
# [19] = test system: Klebsiella pneumoniae; experiment: Inhibition of Klebsiella pneumoniae KP1054 VIM-1 assessed as minimum concentration of compound required to reduce the MIC of biapenem to 1 ug/ml
# [20] = test system: Escherichia coli; experiment: Inhibition of Escherichia coli ECM6625 SHV-5 assessed as minimum concentration of compound needed to reduce the MIC of aztreonam to 4 ug/ml
# [21] = test system: Klebsiella pneumoniae; experiment: Inhibition of Klebsiella pneumoniae KP1160 IMP-26 assessed as minimum concentration of compound needed to reduce the MIC of meropenem to 1 ug/ml
# [22] = test system: Acinetobacter baumannii; experiment: Inhibition of Acinetobacter baumannii AB1053 OXA-72 assessed as minimum concentration of compound needed to reduce the MIC of meropenem to 8 ug/ml
# [23] = target: Beta-lactamase OXA-23 (Acinetobacter baumannii) (UniProt Q9L4P2); experiment: Inhibition of Acinetobacter baumannii AB1054 OXA-23 assessed as minimum concentration of compound needed to reduce the MIC of meropenem to 8 ug/ml
# Beta-lactamase OXA-23 (Acinetobacter baumannii), sequence (Q9L4P2 whole entry): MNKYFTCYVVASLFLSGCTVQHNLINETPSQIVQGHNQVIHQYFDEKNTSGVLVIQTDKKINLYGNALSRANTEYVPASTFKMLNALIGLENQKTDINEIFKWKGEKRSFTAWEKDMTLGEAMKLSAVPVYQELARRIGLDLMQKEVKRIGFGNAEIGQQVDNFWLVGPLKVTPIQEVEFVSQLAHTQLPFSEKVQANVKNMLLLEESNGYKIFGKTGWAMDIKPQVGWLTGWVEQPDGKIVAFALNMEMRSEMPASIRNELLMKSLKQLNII
# [24] = test system: Escherichia coli; experiment: Inhibition of Escherichia coli KP308 SHV-5 assessed as minimum concentration of compound required to reduce the MIC of aztreonam to 4 ug/ml
# [25] = Inhibition of […] OXA-48 using nitrocefin as substrate preincubated for 10 mins followed by substrate addition measured every 10 secs for 10 mins by spectrophotometrically analysis
# [26] = Inhibition of recombinant Escherichia coli IMP-1 using imipenem as substrate preincubated for 10 mins followed by substrate addition measured every 30 secs for 30 mins by spectrophotometrically analysis
# [27] = Inhibition of recombinant Escherichia coli CTX-M-14 using nitrocefin as substrate preincubated for 10 mins followed by substrate addition measured every 10 secs for 10 mins by spectrophotometrically analysis
# [28] = Inhibition of recombinant Escherichia coli SHV-12 using nitrocefin as substrate preincubated for 10 mins followed by substrate addition measured every 10 secs for 10 mins by spectrophotometrically analysis
# [29] = target: BlaVIM-1 (Escherichia coli, UniProt Q8GDC1); experiment: Inhibition of recombinant Escherichia coli VIM-1 using nitrocefin as substrate preincubated for 10 mins followed by substrate addition measured every 10 secs for 10 mins by spectrophotometrically analysis
# [30] = Inhibition of recombinant Escherichia coli AmpC using nitrocefin as substrate preincubated for 10 mins followed by substrate addition measured every 10 secs for 10 mins by spectrophotometrically analysis
SMILES,Activity [1] [µg/mL],Ratio [2],Activity [3] [µg/mL],MEC [11] [µg/mL],MEC [12] [µg/mL],MEC [13] [µg/mL],MEC [14] [µg/mL],MEC [15] [µg/mL],MEC [16] [µg/mL],further results
COc1ccc2c(c1C(=O)O)OB(O)[C@@H](NC(=O)Cc1cccs1)C2,40,8,5,–,–,–,–,–,–,–
COc1ccc2c(c1C(=O)OCOC(=O)C(C)C)OB(O)[C@@H](Sc1nncs1)C2,–,–,–,–,–,–,–,–,–,bioavailability [4]: 100%
Nc1nnc(SCC(=O)N[C@H]2Cc3cccc(C(=O)O)c3OB2O)s1,–,–,–,–,–,–,–,–,–,Activity [5]: 2.5 µg/mL; Activity [6]: > 20 µg/mL; Ki [7]: 7400 nM; Activity [8]: 0.08 µg/mL; Ki [9]: 0.5 nM; Ki [10]: 21 nM
COc1ccc2c(c1C(=O)OCOC(=O)OC(C)C)OB(O)[C@@H](Sc1nncs1)C2,–,–,–,–,–,–,–,–,–,bioavailability [4]: 94%
CCOC(=O)OCOC(=O)c1c(OC)ccc2c1OB(O)[C@@H](Sc1nncs1)C2,–,–,–,–,–,–,–,–,–,bioavailability [4]: 64%
O=C(CSC1CNC1)N[C@H]1Cc2cccc(C(=O)O)c2OB1O,2.5,1,2.5,–,–,–,–,–,–,–
COc1ccc2c(c1C(=O)O)OB(O)[C@@H](NC(=O)CSC1CNC1)C2,5,1,5,–,–,–,–,–,–,–
O=C(CSC1CNC1)N[C@H]1Cc2ccc(F)c(C(=O)O)c2OB1O,5,1,5,–,–,–,–,–,–,–
COc1ccc2c(c1C(=O)O)OB(O)[C@@H](NC(=O)CSC)C2,10,2,5,< 0.3,20,< 0.3,0.6,< 0.3,< 0.3,–
COc1ccc2c(c1C(=O)OCOC(C)=O)OB(O)[C@@H](Sc1nncs1)C2,–,–,–,–,–,–,–,–,–,bioavailability [4]: 52%
CSCC(=O)N[C@H]1Cc2ccc(F)c(C(=O)O)c2OB1O,20,4,5,< 0.3,10,< 0.3,2.5,1.25,0.6,MEC [17]: 1.25 µg/mL; MEC [18]: > 20 µg/mL; MEC [19]: > 20 µg/mL; MEC [20]: 0.15 µg/mL; MEC [21]: > 20 µg/mL; MEC [22]: > 20 µg/mL; MEC [23]: > 20 µg/mL
O=C(O)c1cccc2c1OB(O)[C@@H](Sc1nncs1)C2,–,–,–,–,–,> 20,20,20,10,MEC [24]: 2.5 µg/mL; Activity [5]: 5 µg/mL; MEC [18]: 0.6 µg/mL; MEC [19]: 2.5 µg/mL; Activity [6]: 0.6 µg/mL; Ki [7]: 24 nM; Activity [8]: 0.16 µg/mL; Ki [9]: 1.4 nM; MEC [21]: 40 µg/mL; Ki [10]: 150 nM
CSCC(=O)N[C@H]1Cc2ccc(SCCO)c(C(=O)O)c2OB1O,–,–,–,0.04,> 20,1.25,5,1.25,2.5,–
COc1ccc2c(c1C(=O)O)OB(O)[C@@H](Sc1nncs1)C2,–,–,–,–,10,2.5,10,2.5,1.25,MEC [24]: 0.3 µg/mL; MIC [17]: 2.5 µg/mL; MEC [18]: 0.3 µg/mL; MEC [19]: 0.3 µg/mL; MEC [20]: 0.3 µg/mL; MEC [21]: 5 µg/mL; MEC [22]: > 20 µg/mL; bioavailability [4]: 3%; MEC [23]: > 20 µg/mL
CSCC(=O)N[C@H]1Cc2ccc(Sc3nncn3C)c(C(=O)O)c2OB1O,–,–,–,< 0.3,> 20,2.5,5,2.5,5,–
O=C(Cc1cccs1)N[C@H]1Cc2ccc(F)c(C(=O)O)c2OB1O,40,4,10,–,–,–,–,–,–,–
CSCC(=O)N[C@H]1Cc2ccc(O)c(C(=O)O)c2OB1O,40,16,2.5,< 0.3,5,1.25,2.5,2.5,1.25,–
CSCC(=O)N[C@H]1Cc2ccc(SC)c(C(=O)O)c2OB1O,–,–,–,0.04,20,0.6,1.25,1.25,0.6,–
COc1ccc2c(c1C(=O)OCOC(=O)C(C)(C)C)OB(O)[C@@H](Sc1nncs1)C2,–,–,–,–,–,–,–,–,–,bioavailability [4]: 100%
CSCC(=O)N[C@H]1Cc2ccc(SC3CNC3)c(C(=O)O)c2OB1O,–,–,–,0.6,20,0.6,10,5,1.25,–
NC(=O)[C@@H]1CC[C@@H]2CN1C(=O)N2OS(=O)(=O)O [AVIBACTAM],–,–,–,–,–,–,–,–,< 0.04,Ki [25]: 27 nM; Ki [26]: > 40000 nM; Activity [5]: 1.25 µg/mL; MEC [18]: > 20 µg/mL; Activity [6]: > 20 µg/mL; Ki [27]: 0.41 nM; Ki [7]: 40000 to 80000 nM; Activity [8]: < 0.04 µg/mL; Ki [9]: 27 nM; Ki [28]: 0.27 nM; Ki [10]: 11 nM; Ki [29]: > 40000 nM; Ki [30]: 10 nM
CSCC(=O)N[C@H]1Cc2cccc(C(=O)O)c2OB1O,80,8,5,< 0.3,2.5,0.6,0.6,5,0.6,–
O=C(Cc1cccs1)N[C@H]1Cc2cccc(C(=O)O)c2OB1O,80,32,2.5,–,–,–,–,–,–,–
